Reference: patent US8785462B2, “5-hydroxypyrimidine-4-carboxamide derivative” (Daiichi Sankyo Company, Limited, priority 2009, dated 2014)

Test system: human liver cancer-derived cell line Hep3B
Assay: In vitro erythropoietin (EPO) induction activity in Hep3B cells (human EPO ELISA of culture supernatant)
Format: cell-based
Settings: test compound 12.5 μM, Hep3B cells cultured 24 hours at 37° C., multiple of the EPO concentration in the control (0.5% DMSO = 1)
Procedure: In vitro erythropoietin (EPO) induction activity of test compounds was evaluated using human liver cancer-derived cell line Hep3B (ATCC, Manassas, Va.). Hep3B cells were cultured overnight at 37° C. in Dulbecco's modified Eagle's medium (DMEM) in the presence of 10% fetal bovine serum (FBS) (24-well plate, 1.0×10^5 cells/well). After replacing with fresh DMEM (+10% FBS) containing a test compound dissolved in 0.5% dimethyl sulfoxide (DMSO) (prepared to a concentration of 12.5 μM) or a solvent control (0.5% DMSO), the cells were cultured for 24 hours at 37° C. After recovering the culture supernatant, EPO concentration in the culture supernatant was quantified using a human EPO ELISA kit (StemCell Technologies).
The EPO concentration in the case of using a compound of each example as a test compound was expressed as a multiple of the EPO concentration in the control.

SMILES: CC[C@@H](O)Cc1ccc(-c2ccc(N3CCC(Cc4nc(C)c(O)c(C(=O)NCC(=O)O)n4)CC3)cc2)cc1 [Example 48, [({5-Hydroxy-2-[(1-{4′-[(2R)-2-hydroxybutyl]biphenyl-4-yl}piperidin-4-yl)methyl]-6-methylpyrimidin-4-yl}carbonyl)amino]acetic acid]
- fold induction at 12.5 µM: 42

SMILES: COC[C@H](O)Cc1ccc(-c2ccc(N3CCC(Cc4nc(C)c(O)c(C(=O)NCC(=O)O)n4)CC3)cc2)cc1 [Example 49, [({5-Hydroxy-2-[(1-{4′-[(2R)-2-hydroxy-3-methoxypropyl]biphenyl-4-yl}piperidin-4-yl)methyl]-6-methylpyrimidin-4-yl}carbonyl)amino]acetic acid]
- fold induction at 12.5 µM: 18

SMILES: COC[C@@H](O)Cc1ccc(-c2ccc(N3CCC(Cc4nc(C)c(O)c(C(=O)NCC(=O)O)n4)CC3)cc2)cc1 [Example 50, [({5-Hydroxy-2-[(1-{4′-[(2S)-2-hydroxy-3-methoxypropyl]biphenyl-4-yl}piperidin-4-yl)methyl]-6-methylpyrimidin-4-yl}carbonyl)amino]acetic acid]
- fold induction at 12.5 µM: 23
